Measured values reported in ChEMBL document CHEMBL1201862, “PubChem BioAssay data set” (2004).
Activity calls are given as the source filed them.

Columns and labels:
[1] = target: DNA dC->dU-editing enzyme APOBEC-3A (Homo sapiens, UniProt P31941); test: APOBEC3A DNA deaminase inhibitors, dose response, biochemical (AID 504722); format: functional
[2] = target: DNA dC->dU-editing enzyme APOBEC-3G (Homo sapiens, UniProt Q9HC16); test: Dose Response confirmation of small molecule APOBEC3G DNA Deaminase Inhibitors via a fluorescence-based single-stranded DNA deaminase assay. [Related pubchem assays (depositor defined):AID493012, AID493028]; format: functional
[3] = inhibitors of firefly luciferase expression or activity, dose response, H4 neuroglioma cells, luminescence (AID 1990); format: functional, cell-based
[4] = off-target signal loss in HeLa-CEM21 co-culture – HeLa F-luc CTL cells, cherry-picked, counter-screen for HIV-1 Env fusion inhibitor project, dose response (AID 652040); format: functional, cell-based;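 further: potency for signal decrease marking cytotoxic or nonspecific inhibition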
[5] = Luminescence Cell-Based Dose Response HTS to Identify Inhibitors of 5'UTR Stem-Loop Driven Prion Protein mRNA Translation in H4 Neuroglioblastoma Cells. [Related pubchem assays: 1827 (Project Summary), 1813 (Primary HTS)]; format: functional
[6] = inhibitors of SNCA 5'UTR-driven reporter translation, confirmation, H4 neuroglioma cells, luminescence (AID 1988); format: functional, cell-based
[7] = target: T1, Corticotropin-releasing factor receptor 2/Corticotropin-releasing factor-binding protein (Homo sapiens, UniProt P24387+Q13324); test: activators of CRF receptor 2 with binding protein – uHTS hits, confirmation (AID 602473); format: functional; conditions: read-out: EC50_Mean
T1 sequence (Q13324 whole entry): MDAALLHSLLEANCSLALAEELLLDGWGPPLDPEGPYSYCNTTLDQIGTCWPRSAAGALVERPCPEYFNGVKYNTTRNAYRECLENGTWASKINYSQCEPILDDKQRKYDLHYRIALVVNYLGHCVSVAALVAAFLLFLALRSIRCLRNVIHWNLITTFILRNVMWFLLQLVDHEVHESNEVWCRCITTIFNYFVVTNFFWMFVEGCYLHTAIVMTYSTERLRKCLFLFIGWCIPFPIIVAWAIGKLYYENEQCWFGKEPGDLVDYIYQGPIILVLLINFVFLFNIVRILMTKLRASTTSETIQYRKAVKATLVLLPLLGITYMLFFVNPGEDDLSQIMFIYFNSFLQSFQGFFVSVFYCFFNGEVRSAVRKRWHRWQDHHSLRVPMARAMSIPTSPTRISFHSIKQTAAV
T1 sequence (P24387 whole entry): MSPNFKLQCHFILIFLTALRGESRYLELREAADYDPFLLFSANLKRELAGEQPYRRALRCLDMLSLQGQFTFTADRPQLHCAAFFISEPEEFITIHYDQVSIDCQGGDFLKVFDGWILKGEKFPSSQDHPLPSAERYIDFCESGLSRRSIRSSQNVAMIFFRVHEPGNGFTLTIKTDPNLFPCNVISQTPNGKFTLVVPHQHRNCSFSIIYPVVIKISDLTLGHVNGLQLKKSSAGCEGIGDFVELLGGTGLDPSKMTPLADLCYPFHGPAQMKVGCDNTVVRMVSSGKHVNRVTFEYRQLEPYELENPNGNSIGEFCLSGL

[8] = target: T1, Corticotropin-releasing factor receptor 2/Corticotropin-releasing factor-binding protein; test: Dose Response confirmation of uHTS hits for small molecule antagonists of the CRF-binding protein and CRF-R2 receptor complex.; format: functional; conditions: read-out: IC50_Mean
[9] = target: T2, Short transient receptor potential channel 4 (Mus musculus, UniProt Q9QUQ5); test: mouse TRPC4 channel inhibitors, dose response, cell-based, HEK293 TRPC4/mu-opioid, Fluo-4 calcium (AID 434942); format: functional;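 further: potency of inhibitors blocking the TRPC4 calcium response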
T2 sequence (Q9QUQ5 whole entry): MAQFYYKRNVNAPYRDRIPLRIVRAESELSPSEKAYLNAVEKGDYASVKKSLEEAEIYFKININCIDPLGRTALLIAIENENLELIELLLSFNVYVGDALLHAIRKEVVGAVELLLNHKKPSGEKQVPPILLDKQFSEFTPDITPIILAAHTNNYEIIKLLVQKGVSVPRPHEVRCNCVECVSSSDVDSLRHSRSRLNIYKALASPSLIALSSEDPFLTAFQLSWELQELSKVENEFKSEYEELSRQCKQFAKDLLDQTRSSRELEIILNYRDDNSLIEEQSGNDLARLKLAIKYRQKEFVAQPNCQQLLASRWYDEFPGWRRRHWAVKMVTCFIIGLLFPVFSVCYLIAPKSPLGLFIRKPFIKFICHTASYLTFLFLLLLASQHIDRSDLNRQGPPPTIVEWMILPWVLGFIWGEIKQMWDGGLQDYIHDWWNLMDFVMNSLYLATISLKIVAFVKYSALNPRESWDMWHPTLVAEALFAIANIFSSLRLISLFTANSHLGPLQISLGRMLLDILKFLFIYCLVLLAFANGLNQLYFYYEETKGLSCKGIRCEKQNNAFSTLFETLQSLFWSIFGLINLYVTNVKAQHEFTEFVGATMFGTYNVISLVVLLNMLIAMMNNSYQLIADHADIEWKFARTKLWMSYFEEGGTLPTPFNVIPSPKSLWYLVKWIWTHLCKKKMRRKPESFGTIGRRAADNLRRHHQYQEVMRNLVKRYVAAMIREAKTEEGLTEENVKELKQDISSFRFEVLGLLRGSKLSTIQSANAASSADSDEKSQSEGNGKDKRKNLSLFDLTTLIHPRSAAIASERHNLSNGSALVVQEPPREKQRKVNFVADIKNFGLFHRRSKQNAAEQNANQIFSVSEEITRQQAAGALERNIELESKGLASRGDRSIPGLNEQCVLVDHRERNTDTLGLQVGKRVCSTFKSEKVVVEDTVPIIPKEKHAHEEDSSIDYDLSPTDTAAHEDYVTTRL

HT-1080 = test: cytotoxicity in HT1080 fibrosarcoma cells, cell-based, fluorescence readout (AID 620); format: functional; conditions: Homo sapiens
[10] = target: T3, Luciferin 4-monooxygenase (Photinus pyralis, UniProt P08659); test: Counter Screen for Luciferase-based Assay Positives. [Related pubchem assays: 620, 618, 411 ]
[11] = target: Eukaryotic translation initiation factor 4E (Mus musculus, UniProt P63073); test: eIF4E–eIF4G protein interaction inhibitors, dose response, biochemical, TR-FRET (AID 855); format: functional;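 further: potency for disrupting eIF4E binding to eIF4GI seen as loss of FRET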
[12] = HEp-2 cell cytotoxicity, dose response, cytotoxicity control for RSV inhibitor project, HTS (AID 2410); format: functional; conditions: human respiratory syncytial virus
Coagulation factor XII = target: T4, Coagulation factor XII (Homo sapiens, UniProt P00748); format: functional;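 further: activated factor XIIa alpha cleaving a fluorogenic AMC peptide substrate; inhibitor potency from loss of enzyme activity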
T4 sequence (P00748 whole entry): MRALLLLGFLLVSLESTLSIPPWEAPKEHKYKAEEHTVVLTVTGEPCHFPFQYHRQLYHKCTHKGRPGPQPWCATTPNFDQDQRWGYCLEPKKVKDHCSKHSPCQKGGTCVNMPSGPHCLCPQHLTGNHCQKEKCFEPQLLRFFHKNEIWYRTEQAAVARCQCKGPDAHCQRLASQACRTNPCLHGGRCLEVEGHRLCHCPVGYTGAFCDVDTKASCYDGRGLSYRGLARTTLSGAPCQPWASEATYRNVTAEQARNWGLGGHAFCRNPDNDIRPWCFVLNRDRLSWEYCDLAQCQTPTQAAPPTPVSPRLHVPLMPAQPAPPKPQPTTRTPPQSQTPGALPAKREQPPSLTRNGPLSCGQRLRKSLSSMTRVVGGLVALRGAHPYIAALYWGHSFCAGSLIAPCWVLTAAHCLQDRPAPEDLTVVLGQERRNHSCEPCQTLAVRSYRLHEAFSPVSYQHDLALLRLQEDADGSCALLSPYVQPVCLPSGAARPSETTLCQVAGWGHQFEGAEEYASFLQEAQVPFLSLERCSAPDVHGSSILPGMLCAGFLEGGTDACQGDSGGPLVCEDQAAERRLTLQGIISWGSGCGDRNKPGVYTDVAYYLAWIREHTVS

[13] = P. falciparum Dd2 growth inhibitors, dose response, SYBR Green, cherry-picked samples (AID 1159567); format: functional, cell-based
[14] = P. falciparum ATP4 D1247Y mutant growth inhibitors, dose response, NITD609-resistant line, SYBR Green, dry powder (AID 1159571); format: functional, cell-based;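 further: parasites synchronized at ring stage by sorbitol before testing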
[15] = P. falciparum 3D7-ScDHODH growth inhibitors, dose response, SYBR Green, dry powder samples (AID 1159570); format: functional, cell-based;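 further: parasite growth measured after 72 hours of compound exposure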
[16] = P. falciparum Dd2 growth inhibitors, dose response, SYBR Green, dry powder samples (AID 1159566); format: functional, cell-based;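 further: potency for growth inhibition with lower SYBR green DNA signal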
[17] = target: T5, Heat shock factor protein 1 (Mus musculus, UniProt P38532); test: inhibition of MG132-induced HSE-luciferase signal, confirmation, cell-based, NIH3T3, luminescence, dose retest (AID 2382); format: functional;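 further: NIH3T3 fibroblasts with HSF1-driven luciferase reporter stressed by proteasome inhibitor MG132; luminescence from HSF1-driven luciferase expression after 8 hours of MG132 stress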
T5 sequence (P38532 whole entry): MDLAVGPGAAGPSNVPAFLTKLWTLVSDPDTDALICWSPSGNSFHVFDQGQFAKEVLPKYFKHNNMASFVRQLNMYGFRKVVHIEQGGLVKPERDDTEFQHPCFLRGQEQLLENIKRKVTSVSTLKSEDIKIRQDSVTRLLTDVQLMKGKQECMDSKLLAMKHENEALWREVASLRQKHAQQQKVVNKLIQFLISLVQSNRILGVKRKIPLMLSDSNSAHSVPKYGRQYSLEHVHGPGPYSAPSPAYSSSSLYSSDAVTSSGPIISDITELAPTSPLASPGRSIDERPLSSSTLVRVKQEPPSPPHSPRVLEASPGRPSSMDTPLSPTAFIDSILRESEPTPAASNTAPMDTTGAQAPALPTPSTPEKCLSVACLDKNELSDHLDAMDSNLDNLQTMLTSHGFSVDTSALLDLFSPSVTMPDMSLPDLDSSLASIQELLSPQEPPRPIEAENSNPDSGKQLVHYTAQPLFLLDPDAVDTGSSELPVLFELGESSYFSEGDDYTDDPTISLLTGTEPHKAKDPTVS

[18] = target: Induced myeloid leukemia cell differentiation protein Mcl-1 (Homo sapiens, UniProt Q07820); format: functional
[19] = target: Glyceraldehyde-3-phosphate dehydrogenase (Homo sapiens, UniProt P04406)
[20] = cytotoxicity in HEK-293T cells, dose response, cytotoxicity control for BCR NF-kB inhibitor project, luminescence, B-cell screen hits (AID 489021); format: functional, cell-based;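 further: HEK-293T cells carrying an NF-kB luciferase reporter; cells exposed to compound for about 14 hours before viability readout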
[21] = target: Glucose-6-phosphate 1-dehydrogenase (Homo sapiens, UniProt P11413); test: human G6PD enzyme inhibitors, dose response, selectivity assay for P. falciparum G6PD inhibitor project, biochemical, fluorescence (AID 504792); format: functional
[22] = target: T3, Luciferin 4-monooxygenase; test: firefly luciferase enzyme inhibitors, dose response, biochemical, luminescence (AID 1891)

T3 sequence (P08659 whole entry): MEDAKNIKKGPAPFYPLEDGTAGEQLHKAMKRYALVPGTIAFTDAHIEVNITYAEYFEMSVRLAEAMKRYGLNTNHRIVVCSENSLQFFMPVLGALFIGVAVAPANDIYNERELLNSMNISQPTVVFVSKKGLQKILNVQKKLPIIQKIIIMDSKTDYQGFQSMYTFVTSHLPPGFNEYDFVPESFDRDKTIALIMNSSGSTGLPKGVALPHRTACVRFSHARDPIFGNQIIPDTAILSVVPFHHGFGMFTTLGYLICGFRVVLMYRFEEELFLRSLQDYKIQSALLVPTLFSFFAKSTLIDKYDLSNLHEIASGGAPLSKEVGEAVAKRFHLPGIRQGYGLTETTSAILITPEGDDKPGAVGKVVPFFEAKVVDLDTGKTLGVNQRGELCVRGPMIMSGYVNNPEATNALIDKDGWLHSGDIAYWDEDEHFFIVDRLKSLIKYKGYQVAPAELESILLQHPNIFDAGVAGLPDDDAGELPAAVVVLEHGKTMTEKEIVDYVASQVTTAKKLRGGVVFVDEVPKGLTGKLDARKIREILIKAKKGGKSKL
Chain of DNA dC->dU-editing enzyme APOBEC-3G (Q9HC16 whole entry): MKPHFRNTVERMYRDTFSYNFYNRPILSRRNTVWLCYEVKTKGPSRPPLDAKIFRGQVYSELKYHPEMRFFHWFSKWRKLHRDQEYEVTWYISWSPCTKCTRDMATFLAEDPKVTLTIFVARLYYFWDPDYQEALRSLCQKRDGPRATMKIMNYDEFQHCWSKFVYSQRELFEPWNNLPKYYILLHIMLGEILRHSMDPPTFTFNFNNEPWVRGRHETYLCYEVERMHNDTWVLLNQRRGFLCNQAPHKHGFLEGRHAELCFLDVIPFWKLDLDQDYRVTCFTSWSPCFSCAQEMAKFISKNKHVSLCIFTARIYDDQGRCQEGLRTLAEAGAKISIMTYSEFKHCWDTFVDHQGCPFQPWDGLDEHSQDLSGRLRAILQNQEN
Chain of DNA dC->dU-editing enzyme APOBEC-3A (P31941 whole entry): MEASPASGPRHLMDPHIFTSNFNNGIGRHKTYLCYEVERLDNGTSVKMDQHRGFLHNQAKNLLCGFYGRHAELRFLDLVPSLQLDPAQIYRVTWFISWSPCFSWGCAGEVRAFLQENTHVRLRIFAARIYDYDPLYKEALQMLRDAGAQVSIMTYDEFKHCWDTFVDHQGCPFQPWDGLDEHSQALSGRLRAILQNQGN
Chain of Eukaryotic translation initiation factor 4E (P63073 whole entry): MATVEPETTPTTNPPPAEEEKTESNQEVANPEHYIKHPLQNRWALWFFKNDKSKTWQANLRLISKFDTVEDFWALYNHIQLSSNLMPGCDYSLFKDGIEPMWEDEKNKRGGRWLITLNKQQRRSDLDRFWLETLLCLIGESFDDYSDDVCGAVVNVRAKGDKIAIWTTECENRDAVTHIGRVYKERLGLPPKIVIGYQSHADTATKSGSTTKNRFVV
Chain of Glucose-6-phosphate 1-dehydrogenase (P11413 whole entry): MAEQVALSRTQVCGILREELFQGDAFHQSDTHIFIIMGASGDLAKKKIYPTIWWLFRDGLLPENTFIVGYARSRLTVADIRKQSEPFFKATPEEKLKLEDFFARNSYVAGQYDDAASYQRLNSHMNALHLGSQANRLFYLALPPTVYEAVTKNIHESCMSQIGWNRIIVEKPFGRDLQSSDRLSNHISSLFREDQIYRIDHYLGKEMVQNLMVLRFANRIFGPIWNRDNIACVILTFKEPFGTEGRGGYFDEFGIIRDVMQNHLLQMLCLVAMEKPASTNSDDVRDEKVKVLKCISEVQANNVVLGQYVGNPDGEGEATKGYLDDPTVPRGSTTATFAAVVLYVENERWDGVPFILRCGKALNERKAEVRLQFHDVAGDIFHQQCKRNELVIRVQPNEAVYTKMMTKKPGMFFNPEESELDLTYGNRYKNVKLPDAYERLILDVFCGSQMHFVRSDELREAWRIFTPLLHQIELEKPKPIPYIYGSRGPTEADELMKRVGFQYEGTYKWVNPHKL
Chain of Induced myeloid leukemia cell differentiation protein Mcl-1 (Q07820 whole entry): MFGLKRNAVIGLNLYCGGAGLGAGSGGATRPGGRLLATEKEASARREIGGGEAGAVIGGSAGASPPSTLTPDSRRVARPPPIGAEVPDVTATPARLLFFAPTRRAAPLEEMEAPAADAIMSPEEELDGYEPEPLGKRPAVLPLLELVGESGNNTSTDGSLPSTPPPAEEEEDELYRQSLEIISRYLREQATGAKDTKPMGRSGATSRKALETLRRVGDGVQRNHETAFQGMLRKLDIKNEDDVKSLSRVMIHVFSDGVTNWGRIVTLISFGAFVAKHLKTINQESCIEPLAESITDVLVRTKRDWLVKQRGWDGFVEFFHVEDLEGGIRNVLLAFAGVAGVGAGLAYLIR
Chain of Glyceraldehyde-3-phosphate dehydrogenase (P04406 whole entry): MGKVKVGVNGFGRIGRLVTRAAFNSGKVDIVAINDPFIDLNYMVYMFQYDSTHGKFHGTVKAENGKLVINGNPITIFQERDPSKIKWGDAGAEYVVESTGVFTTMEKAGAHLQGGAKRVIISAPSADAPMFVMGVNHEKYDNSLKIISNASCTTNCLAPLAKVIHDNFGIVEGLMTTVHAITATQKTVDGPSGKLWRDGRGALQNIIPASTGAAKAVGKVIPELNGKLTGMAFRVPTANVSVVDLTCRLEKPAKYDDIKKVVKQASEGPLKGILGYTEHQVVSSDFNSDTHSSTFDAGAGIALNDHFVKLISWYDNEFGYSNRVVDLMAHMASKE

Fc1cccc(-c2n[nH]c(=S)n2-c2ccccc2)c1
IC50 [1]: > 100 µM (inactive) | IC50 [2]: 4.26 µM (active)

O=C(Nc1cccc(S(=O)(=O)Nc2ccccc2F)c1)c1ccc2ccccc2n1
IC50 [1]: > 100 µM (inactive) | IC50 [2]: 15.6 µM (active)

COc1ccc(OC)c(-c2cc(C(=O)Nc3c(C)nn(Cc4ccc(Cl)cc4)c3C)no2)c1
EC50 [3]: 13.6 µM (active) | AC50 [4]: > 70 µM (inactive) | EC50 [5]: 19.5 µM (active) | EC50 [6]: 13.9 µM (active)

Cc1nn(-c2cccc(Cl)c2)c2nc(C(F)(F)F)[nH]c(=O)c12
EC50 [7]: > 53 µM (inactive) | IC50 [8]: 2.6 µM (active) | EC50 [9]: 3.35 µM (active)

CC(C)C(=O)Nc1ccc(-c2nc3cccnc3o2)cc1
EC50 (HT-1080): > 50 µM (not active) | EC50 [10]: < 0.2 µM (active)

O=C1NC(c2ccc3c(c2)OCO3)Oc2ccccc21 (stereo not drawn)
IC50 [11]: > 64 µM (inactive)

CCOC(=O)C1(Cc2cccc(OC)c2)CCN(Cc2cccn2-c2nccs2)CC1
CC50 [12]: > 50 µM (active) | IC50 (cells): 10.2 µM (active)

Cc1cc(C)nc(NC(=N)Nc2ccc(CC(=O)OC(C)C)cc2)n1
AC50 [4]: 22.1 µM (active)

Cc1ccccc1CC1(CO)CCCN(Cc2c(C)nn(C)c2Cl)C1 (stereo not drawn)
CC50 [12]: 49.4 µM (active) | IC50 (cells): 7.18 µM (active)

C/C(=N\NC(=O)c1cccc(N/N=C(\C)c2ccccc2)c1)c1ccccc1
IC50 (Coagulation factor XII): > 50 µM (inactive)

C[C@@H]1CN([C@@H](C)CO)C(=O)c2cccc(NC(=O)c3ccc(-c4nccs4)cc3)c2O[C@H]1CN(C)Cc1ccc(Cl)c(Cl)c1
AC50 [13]: 1.7 µM (active) | AC50 [14]: 0.692 µM (active) | AC50 [15]: 1.25 µM (active) | AC50 [16]: 0.922 µM (active)

CC1(C)Cc2ccccc2-c2n[nH]c(=S)n21
IC50 [1]: > 100 µM (inactive) | EC50 [17]: > 195 µM (not active) | IC50 [2]: 4.33 µM (active)

O=C(N/N=C/c1ccc(O)cc1)c1cccc(N/N=C/c2ccc(O)cc2)c1
IC50 [18]: 6.06 µM (active)

Cc1ccoc1C(=O)Nc1ccc(CC(=O)O)cc1
EC50 (HT-1080): > 50 µM (not active) | IC50 [19]: > 100 µM (not active) | IC50 [20]: > 80 µM (inactive) | EC50 [10]: 1.12 µM (active)

CCNC(=O)C1=C(O)c2sccc2N(C)S1(=O)=O
IC50 [11]: 50 µM (inactive)

COCCn1c(-c2ccc(Cl)cc2Cl)nc2c(c(=O)c3ccccc3n2C)c1=O
IC50 (cells): > 50 µM (active)

Cc1[nH]c(=S)c(C#N)c(C)c1CCC#N
IC50 [1]: > 100 µM (inactive) | IC50 [2]: 9.7 µM (active) | IC50 [21]: > 80 µM (inactive) | EC50 [22]: > 112 µM (not active)
